Values after ≈ are worked out from the molar mass of the structure shown. Where two headings read alike, the source gives them in different places. Where a SMILES comes first, the peptide text is derived from it. Bridges are numbered along the chain shown (N, C = ends). [ ]: non-standard residue; d: D form. dHyp = O=C(O)[C@H]1C[C@H](O)CN1; dPen = CC(C)(S)[C@@H](N)C(=O)O; dDab = NCC[C@@H](N)C(=O)O; Dab = NCC[C@H](N)C(=O)O
Assays:
[1] = system: K. pneumoniae 968733 (CST-R); experiment: MIC assay (CLSI); format: cell-based, Klebsiella pneumoniae
Experimental: (§1) MIC assays [Clinical and Laboratory Standards Institute (CLSI) methodology] and serial passage studies were performed as described by Luther et al. ([6]). […] Resistant mutants were isolated, and their MIC values were determined and sent to Microbes NG (Birmingham, United Kingdom) for whole-genome sequencing and bioinformatic analysis.

[2] = system: K. pneumoniae ATCC 43816 LptA Q62L mutant; experiment: microbe, parasite or virus in culture
Experimental: as §1

[3] = system: E. coli ATCC 25922 (parent / WT); experiment: microbe, parasite or virus in culture; settings: for MIC: Escherichia coli
Experimental: as §1

[4] = system: E. coli ATCC 25922 LptA Q62L mutant; experiment: microbe, parasite or virus in culture; settings: for MIC: Escherichia coli
Experimental: as §1

[5] = system: K. pneumoniae ATCC 43816 (parent / WT); experiment: microbe, parasite or virus in culture; settings: for MIC: Klebsiella pneumoniae
Experimental: as §1

[6] = system: K. pneumoniae NCTC 13443 (NDM-1) (parent / WT); experiment: microbe, parasite or virus in culture; settings: Klebsiella pneumoniae
Experimental: as §1

[7] = system: Klebsiella pneumoniae ATCC 43816 LptA I36S mutant; experiment: microbe, parasite or virus in culture; settings: Klebsiella pneumoniae, ATCC43816, read-out: MIC Klebsiella pneumoniae ATCC 43816 LptA I36S (1x)
Experimental: as §1

[8] = system: Klebsiella pneumoniae ATCC 43816 LapB mutant; experiment: microbe, parasite or virus in culture; settings: Klebsiella pneumoniae, ATCC43816, read-out: MIC Klebsiella pneumoniae ATCC 43816 LapB (1x)
Experimental: as §1

[9] = system: Klebsiella pneumoniae NCTC 13443 LptA I36S mutant; experiment: microbe, parasite or virus in culture; settings: Klebsiella pneumoniae, NCTC13443, read-out: MIC Klebsiella pneumoniae NCTC 13443 LptA I36S (2x)
Experimental: as §1

[10] = system: Klebsiella pneumoniae ATCC 43816 LptA L116Q mutant; experiment: microbe, parasite or virus in culture; settings: Klebsiella pneumoniae, ATCC43816, read-out: MIC Klebsiella pneumoniae ATCC 43816 LptA L116Q (1x)
Experimental: as §1

[11] = system: Klebsiella pneumoniae ATCC 43816 LptA I36N mutant; experiment: microbe, parasite or virus in culture; settings: Klebsiella pneumoniae, ATCC43816, read-out: MIC Klebsiella pneumoniae ATCC 43816 LptA I36N (1x)
Experimental: as §1

[12] = system: Escherichia coli ATCC 25922 LptA E84D mutant; experiment: microbe, parasite or virus in culture; settings: Escherichia coli, ATCC25922, read-out: MIC Escherichia coli ATCC 25922 LptA E84D (1x)
Experimental: as §1

[13] = system: Klebsiella pneumoniae ATCC 43816 PglJ, PhnJ, ThiH mutant; experiment: microbe, parasite or virus in culture; settings: Klebsiella pneumoniae, ATCC43816, read-out: MIC Klebsiella pneumoniae ATCC 43816 PglJ, PhnJ, ThiH (1x)
Experimental: as §1

[14] = system: K. pneumoniae NCTC 13443 (NDM-1) LptA Q62L mutant; experiment: microbe, parasite or virus in culture; settings: Klebsiella pneumoniae, NCTC13443, read-out: MIC Klebsiella pneumoniae NCTC 13443 LptA Q62L (5x)
Experimental: as §1

[15] = system: Klebsiella pneumoniae NCTC 13443 YejM mutant; experiment: microbe, parasite or virus in culture; settings: Klebsiella pneumoniae, NCTC13443, read-out: MIC Klebsiella pneumoniae NCTC 13443 YejM (1x)
Experimental: as §1

[16] = system: Escherichia coli ATCC 25922 KdsD mutant; experiment: microbe, parasite or virus in culture; settings: Escherichia coli, ATCC25922, read-out: MIC Escherichia coli ATCC 25922 KdsD (2x)
Experimental: as §1

[17] = system: Klebsiella pneumoniae NCTC 13443 LpxC, LpxD mutant; experiment: microbe, parasite or virus in culture; settings: Klebsiella pneumoniae, NCTC13443, read-out: MIC Klebsiella pneumoniae NCTC 13443 LpxC, LpxD (1x)
Experimental: as §1

[18] = CLSI method, clone harboring LptA Q62L

Compound: CC[C@@H](C)[C@@H](NC(=O)[C@H]1C[C@H](O)CN1C(=O)[C@H](N)C(C)C)C(=O)N[C@@H](C(=O)N[C@H](Cc1ccc(O)cc1)C(=O)N[C@H]1C(=O)N[C@H](CC(N)=O)C(=O)N[C@H](CCCNC(=N)N)C(=O)N[C@H](CCN)C(=O)N[C@H]([C@H](C)O)C(=O)N[C@@H](CCN)C(=O)N[C@H](CCCCN)C(=O)N[C@@H](C(=O)N[C@H](CCN)C(=O)N[C@H](CCCNC(=N)N)C(=O)N[C@H](Cc2ccc(O)cc2)C(=O)O)CSSC1(C)C)[C@H](C)O [6-enant.] (H-[dV][dHyp][dI][dT][dY][dPen][dN][dR][dDab][dT][Dab][dK][dC][dDab][dR][dY]-OH; disulfide 6-13)
- MIC K. pneumoniae 968733 (CST-R) Parent ([1]; CLSI method, colistin-resistant strain): >8 micrograms per milliliter
- MIC K. pneumoniae ATCC 43816 Q62L mutant [2, 18]: >8 micrograms per milliliter
- MIC E. coli ATCC 25922 Parent ([3]; CLSI method, parent strain): >8 micrograms per milliliter
- MIC E. coli ATCC 25922 Q62L mutant [4, 18]: >8 micrograms per milliliter
- MIC K. pneumoniae ATCC 43816 Parent ([5]; CLSI method, parent strain): >8 micrograms per milliliter

Compound: CN(C)c1cc(NC(=O)CNC(C)(C)C)c(O)c2c1C[C@H]1C[C@H]3[C@H](N(C)C)C(O)=C(C(N)=O)C(=O)[C@@]3(O)C(O)=C1C2=O [Tigecycline, reference compound]
- MIC ([1]; Klebsiella pneumoniae, read-out: MIC K. pneumoniae 968733 (CST-R) Parent): 0.5 µg/mL (≈ 0.854 µM)
- MIC ([3]; ATCC25922, read-out: MIC E. coli ATCC 25922 Parent): 0.25 µg/mL (≈ 0.427 µM)
- MIC ([4]; ATCC25922, read-out: MIC E. coli ATCC 25922 Q62L mutant): 0.25 µg/mL (≈ 0.427 µM)
- MIC ([6]; NCTC13443, read-out: MIC K. pneumoniae NCTC 13443 (NDM-1) Parent): 2 µg/mL (≈ 3.41 µM)
- MIC ([5]; ATCC43816, read-out: MIC K. pneumoniae ATCC 43816 Parent): 0.5 µg/mL (≈ 0.854 µM)

Compound: CN[C@H](CC(C)C)C(=O)N[C@H]1C(=O)N[C@@H](CC(N)=O)C(=O)N[C@H]2C(=O)N[C@H]3C(=O)N[C@H](C(=O)N[C@H](C(=O)O)c4cc(O)cc(O)c4-c4cc3ccc4O)[C@H](O)c3ccc(c(Cl)c3)Oc3cc2cc(c3O[C@@H]2O[C@H](CO)[C@@H](O)[C@H](O)[C@H]2O[C@H]2C[C@](C)(N)[C@H](O)[C@H](C)O2)Oc2ccc(cc2Cl)[C@H]1O [Vancomycin]
- MIC [7]: > 64 µg/mL
- MIC [8]: > 64 µg/mL
- MIC [9]: > 64 µg/mL
- MIC ([2]; Klebsiella pneumoniae, ATCC43816, read-out: MIC Klebsiella pneumoniae ATCC 43816 LptA Q62L (4x)): > 64 µg/mL
- MIC [10]: > 64 µg/mL
- MIC ([3]; ATCC25922, read-out: MIC Escherichia coli ATCC 25922 WT): > 64 µg/mL
- MIC [11]: > 64 µg/mL
- MIC [12]: > 64 µg/mL
- MIC [13]: > 64 µg/mL
- MIC [14]: > 64 µg/mL
- MIC [15]: > 64 µg/mL
- MIC [16]: > 64 µg/mL
- MIC ([4]; ATCC25922, read-out: MIC Escherichia coli ATCC 25922 LptA Q62L (7x)): > 64 µg/mL
- MIC [17]: > 64 µg/mL
- MIC ([6]; NCTC13443, read-out: MIC Klebsiella pneumoniae NCTC 13443 WT): > 64 µg/mL
- MIC ([5]; ATCC43816, read-out: MIC Klebsiella pneumoniae ATCC 43816 WT): > 64 µg/mL
